Among the data in ChEMBL document CHEMBL1201862, “PubChem BioAssay data set” (2004) are IC50, AC50 and EC50 values, retold here.

As a reminder, the IC50 is the concentration needed to halve the response being measured. The AC50 is the concentration giving half of the maximal activity seen.

Molecules are shown by their SMILES. Active and inactive are the calls of the source. For most assays here, no stated cut-off is given here; in the data, actives have a measured IC50 and inactives only a lower limit.

One test addresses T1, Caspase-3 (Homo sapiens, UniProt P42574).
T1 sequence (P42574 whole entry): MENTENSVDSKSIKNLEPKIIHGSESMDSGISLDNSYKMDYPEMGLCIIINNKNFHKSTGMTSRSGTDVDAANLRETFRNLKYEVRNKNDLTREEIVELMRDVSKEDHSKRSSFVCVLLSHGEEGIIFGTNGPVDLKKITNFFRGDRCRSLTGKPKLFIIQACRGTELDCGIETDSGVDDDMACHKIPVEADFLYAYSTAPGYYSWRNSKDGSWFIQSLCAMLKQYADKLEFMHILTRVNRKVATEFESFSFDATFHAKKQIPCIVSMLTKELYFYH
It counts as functional.

Test [1] addresses T2, Sentrin-specific protease 8 (Homo sapiens, UniProt Q96LD8).
T2 sequence (Q96LD8 whole entry): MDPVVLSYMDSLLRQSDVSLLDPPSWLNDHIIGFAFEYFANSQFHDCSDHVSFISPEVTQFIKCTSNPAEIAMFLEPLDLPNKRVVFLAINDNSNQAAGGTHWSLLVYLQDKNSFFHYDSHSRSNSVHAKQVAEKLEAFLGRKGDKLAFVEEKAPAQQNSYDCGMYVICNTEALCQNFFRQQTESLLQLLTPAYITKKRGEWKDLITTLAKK
It counts as functional.

Test [2] deals with T3, Sentrin-specific protease 6 (Homo sapiens, UniProt Q9GZR1).
T3 sequence (Q9GZR1 whole entry): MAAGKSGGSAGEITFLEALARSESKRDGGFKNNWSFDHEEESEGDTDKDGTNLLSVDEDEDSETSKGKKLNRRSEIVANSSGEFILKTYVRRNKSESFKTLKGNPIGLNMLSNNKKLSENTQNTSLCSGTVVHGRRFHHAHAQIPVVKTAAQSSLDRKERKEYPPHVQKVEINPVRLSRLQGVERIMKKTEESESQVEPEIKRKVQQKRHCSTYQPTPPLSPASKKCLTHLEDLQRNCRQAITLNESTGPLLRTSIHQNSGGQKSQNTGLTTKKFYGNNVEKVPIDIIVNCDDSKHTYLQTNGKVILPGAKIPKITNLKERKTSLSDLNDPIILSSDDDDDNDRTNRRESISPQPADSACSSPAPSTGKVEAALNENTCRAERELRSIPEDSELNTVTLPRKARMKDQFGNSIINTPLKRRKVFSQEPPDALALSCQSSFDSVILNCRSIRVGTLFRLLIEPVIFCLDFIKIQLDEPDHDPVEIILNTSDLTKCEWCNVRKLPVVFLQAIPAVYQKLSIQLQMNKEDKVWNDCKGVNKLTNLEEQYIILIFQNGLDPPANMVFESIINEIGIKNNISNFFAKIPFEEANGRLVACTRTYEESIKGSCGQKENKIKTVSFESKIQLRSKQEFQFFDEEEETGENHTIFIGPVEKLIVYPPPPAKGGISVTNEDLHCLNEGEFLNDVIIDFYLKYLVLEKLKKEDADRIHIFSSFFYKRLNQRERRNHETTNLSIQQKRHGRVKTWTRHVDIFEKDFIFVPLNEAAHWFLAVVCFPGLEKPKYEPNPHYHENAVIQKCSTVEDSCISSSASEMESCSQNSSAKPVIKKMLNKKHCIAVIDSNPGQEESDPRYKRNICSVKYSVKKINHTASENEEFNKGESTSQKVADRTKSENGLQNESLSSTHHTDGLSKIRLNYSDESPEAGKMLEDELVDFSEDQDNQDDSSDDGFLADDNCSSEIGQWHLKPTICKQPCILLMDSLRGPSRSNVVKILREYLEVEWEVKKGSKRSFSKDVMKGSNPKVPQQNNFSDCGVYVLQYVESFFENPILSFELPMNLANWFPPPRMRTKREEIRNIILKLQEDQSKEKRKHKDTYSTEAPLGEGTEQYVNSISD
In kind it is functional.

In another test the target is T4, Protein skinhead-1 (Caenorhabditis elegans, UniProt P34707).
T4 sequence (P34707 whole entry): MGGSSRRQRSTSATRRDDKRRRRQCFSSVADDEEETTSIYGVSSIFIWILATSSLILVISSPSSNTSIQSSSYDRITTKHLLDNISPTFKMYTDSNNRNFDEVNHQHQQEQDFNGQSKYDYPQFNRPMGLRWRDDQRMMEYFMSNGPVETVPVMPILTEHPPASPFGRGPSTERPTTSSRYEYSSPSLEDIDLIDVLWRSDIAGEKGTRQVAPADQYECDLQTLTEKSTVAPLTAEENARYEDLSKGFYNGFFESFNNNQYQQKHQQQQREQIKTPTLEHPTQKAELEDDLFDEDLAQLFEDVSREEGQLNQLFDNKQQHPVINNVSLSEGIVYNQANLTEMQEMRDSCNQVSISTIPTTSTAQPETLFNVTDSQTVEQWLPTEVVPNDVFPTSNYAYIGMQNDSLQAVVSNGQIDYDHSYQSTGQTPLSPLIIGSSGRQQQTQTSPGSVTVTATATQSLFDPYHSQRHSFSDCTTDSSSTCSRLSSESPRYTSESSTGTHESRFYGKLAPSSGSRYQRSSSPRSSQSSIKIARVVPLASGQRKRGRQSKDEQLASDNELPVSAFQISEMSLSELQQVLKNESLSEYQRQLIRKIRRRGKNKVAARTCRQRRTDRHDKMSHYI
It counts as functional.

Test [3] addresses T5, Sentrin-specific protease 7 (Homo sapiens, UniProt Q9BQF6).
T5 sequence (Q9BQF6 whole entry): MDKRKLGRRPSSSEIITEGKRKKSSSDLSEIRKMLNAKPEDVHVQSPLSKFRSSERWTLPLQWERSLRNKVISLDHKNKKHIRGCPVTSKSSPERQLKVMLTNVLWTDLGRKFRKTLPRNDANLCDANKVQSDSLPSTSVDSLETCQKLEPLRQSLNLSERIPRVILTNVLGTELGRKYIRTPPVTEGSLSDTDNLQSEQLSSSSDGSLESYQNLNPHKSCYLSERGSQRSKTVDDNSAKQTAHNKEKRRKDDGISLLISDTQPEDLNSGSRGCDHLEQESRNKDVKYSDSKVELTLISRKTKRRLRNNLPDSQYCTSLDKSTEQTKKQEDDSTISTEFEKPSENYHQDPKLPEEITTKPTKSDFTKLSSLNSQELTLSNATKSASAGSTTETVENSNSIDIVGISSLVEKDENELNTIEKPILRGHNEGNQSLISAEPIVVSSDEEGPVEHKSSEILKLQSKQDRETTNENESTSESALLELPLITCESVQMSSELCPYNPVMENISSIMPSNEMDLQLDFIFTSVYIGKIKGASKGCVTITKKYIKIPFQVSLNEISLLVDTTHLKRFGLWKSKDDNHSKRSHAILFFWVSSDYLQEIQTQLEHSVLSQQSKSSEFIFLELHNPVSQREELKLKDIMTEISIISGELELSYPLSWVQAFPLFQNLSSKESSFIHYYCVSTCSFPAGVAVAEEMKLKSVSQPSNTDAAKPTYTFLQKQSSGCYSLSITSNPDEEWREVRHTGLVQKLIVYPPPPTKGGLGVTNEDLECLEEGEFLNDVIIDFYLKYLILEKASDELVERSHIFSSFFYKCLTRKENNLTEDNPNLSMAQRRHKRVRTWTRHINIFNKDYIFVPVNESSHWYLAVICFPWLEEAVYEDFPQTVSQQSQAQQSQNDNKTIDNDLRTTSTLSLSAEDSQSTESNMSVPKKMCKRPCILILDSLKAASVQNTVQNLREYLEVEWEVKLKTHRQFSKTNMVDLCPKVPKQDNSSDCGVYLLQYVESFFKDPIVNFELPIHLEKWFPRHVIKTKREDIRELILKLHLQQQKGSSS
In kind it is functional.

In test [4] the target is Heat shock protein HSP 90-alpha (Homo sapiens, UniProt P07900). In kind it is functional, organism-based.
The next test deals with H9c2. Description: cells. In kind it is functional, cell-based. The following applies: Rattus norvegicus, H9c2, Myocardium.
Test [5] deals with T6, Corticotropin-releasing factor receptor 2/Corticotropin-releasing factor-binding protein (Homo sapiens, UniProt P24387+Q13324).
T6 sequence (Q13324 whole entry): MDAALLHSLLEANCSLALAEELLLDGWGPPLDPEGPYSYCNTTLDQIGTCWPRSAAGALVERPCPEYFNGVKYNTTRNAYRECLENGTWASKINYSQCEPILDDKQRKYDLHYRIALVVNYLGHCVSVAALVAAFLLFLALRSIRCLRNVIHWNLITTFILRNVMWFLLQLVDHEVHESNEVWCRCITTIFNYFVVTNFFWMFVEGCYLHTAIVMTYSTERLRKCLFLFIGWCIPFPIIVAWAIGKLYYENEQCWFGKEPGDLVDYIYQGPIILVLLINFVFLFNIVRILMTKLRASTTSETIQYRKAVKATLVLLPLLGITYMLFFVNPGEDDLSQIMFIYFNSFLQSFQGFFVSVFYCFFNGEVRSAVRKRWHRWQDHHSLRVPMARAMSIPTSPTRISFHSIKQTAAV
T6 sequence (P24387 whole entry): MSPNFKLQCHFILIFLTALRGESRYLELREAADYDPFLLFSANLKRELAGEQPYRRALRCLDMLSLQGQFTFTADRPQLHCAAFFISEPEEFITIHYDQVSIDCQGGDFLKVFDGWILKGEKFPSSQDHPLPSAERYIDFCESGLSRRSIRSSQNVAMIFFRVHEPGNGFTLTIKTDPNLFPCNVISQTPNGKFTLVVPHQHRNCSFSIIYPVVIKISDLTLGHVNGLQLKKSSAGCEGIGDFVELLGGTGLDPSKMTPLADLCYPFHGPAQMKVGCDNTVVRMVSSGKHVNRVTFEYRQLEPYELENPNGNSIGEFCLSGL
Description: activators of CRF receptor 2 with binding protein – uHTS hits, confirmation (AID 602473). In kind it is functional. The conditions noted are these: read-out: EC50_Mean.

The target in test [6] is T7, Apoptotic protease-activating factor 1 (Homo sapiens, UniProt O14727).
T7 sequence (O14727 whole entry): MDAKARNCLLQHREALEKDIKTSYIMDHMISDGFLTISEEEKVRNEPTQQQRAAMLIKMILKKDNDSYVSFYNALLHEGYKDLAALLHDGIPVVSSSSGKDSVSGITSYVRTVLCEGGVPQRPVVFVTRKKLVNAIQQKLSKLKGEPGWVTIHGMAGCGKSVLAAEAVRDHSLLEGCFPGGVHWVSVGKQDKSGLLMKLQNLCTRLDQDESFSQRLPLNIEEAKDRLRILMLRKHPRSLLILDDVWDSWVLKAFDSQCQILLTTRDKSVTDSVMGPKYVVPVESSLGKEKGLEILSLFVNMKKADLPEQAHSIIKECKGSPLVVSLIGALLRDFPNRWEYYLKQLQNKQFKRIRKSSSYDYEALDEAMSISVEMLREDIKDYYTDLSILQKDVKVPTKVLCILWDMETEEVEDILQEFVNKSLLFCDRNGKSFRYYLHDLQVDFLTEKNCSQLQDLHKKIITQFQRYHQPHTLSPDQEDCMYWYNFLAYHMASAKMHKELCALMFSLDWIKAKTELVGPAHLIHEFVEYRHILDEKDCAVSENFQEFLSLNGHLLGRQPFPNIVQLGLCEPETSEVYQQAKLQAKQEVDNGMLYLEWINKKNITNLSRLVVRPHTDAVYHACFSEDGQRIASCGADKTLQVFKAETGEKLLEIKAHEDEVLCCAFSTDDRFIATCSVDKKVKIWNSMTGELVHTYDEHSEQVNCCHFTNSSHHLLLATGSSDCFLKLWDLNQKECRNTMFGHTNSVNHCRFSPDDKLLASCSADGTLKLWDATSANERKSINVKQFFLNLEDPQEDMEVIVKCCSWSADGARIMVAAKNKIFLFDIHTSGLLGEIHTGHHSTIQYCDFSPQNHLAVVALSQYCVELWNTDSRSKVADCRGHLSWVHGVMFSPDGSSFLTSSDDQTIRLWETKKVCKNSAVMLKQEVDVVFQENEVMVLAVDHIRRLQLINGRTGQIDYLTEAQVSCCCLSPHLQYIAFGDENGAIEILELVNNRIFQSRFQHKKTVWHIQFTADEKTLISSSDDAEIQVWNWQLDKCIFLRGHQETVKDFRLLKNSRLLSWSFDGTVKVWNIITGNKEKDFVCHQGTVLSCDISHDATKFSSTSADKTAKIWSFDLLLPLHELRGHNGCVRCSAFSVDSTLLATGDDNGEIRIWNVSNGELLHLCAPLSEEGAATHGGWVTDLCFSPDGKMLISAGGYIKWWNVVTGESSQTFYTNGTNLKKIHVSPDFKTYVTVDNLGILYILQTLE
In kind it is functional.

For `CCCOc1ccc(C(=O)Nc2ccc(Cl)cn2)cc1`, the IC50 is 7.83 µM (active) on Caspase-3; 9.81 µM (active) in test [1]; 16.1 µM (active) in test [2]; 100 µM (inactive) at Protein skinhead-1; 3.22 µM (active) in [3].
Take `O=C1/C(=C\c2ccc(O)c(O)c2)SC(=S)N1Cc1ccccc1`: the half-maximal inhibitory concentration (IC50) on Caspase-3 was 67.5 µM (active); in test [1], 10.7 µM (active); in test [2] it was 11.5 µM (active); in test [3] it was 13 µM (active). The AC50 in [4] was 3.11 µM (active).
`CC(C)(C)/N=C/c1c(O)ccc2oc3c(c12)CCCC3`: the IC50 in the test with H9c2 is > 79 µM (inactive). The EC50 in test [5] was > 53 µM (inactive).
On to `O=C(NCCN1CCN(c2ccccc2F)CC1)c1cccn2c(=O)c3ccccc3nc12`, for which the IC50 in the test on H9c2 is > 79 µM (inactive).
Still for that read-out and setting: in the case of `O=C(c1cc(O)nc2ccccc12)N1CCN(S(=O)(=O)c2ccc3ccccc3c2)CC1` it was > 79 µM (inactive).
On to `COc1ccc(-c2cc3ccc(OC)cc3cn2)cc1`, for which the IC50 was 15.8 µM (active) at Caspase-3, > 100 µM (inactive) in [1], > 100 µM (inactive) in test [2] and 1.69 µM (active) in test [3].
`CN(Cc1ccc(F)cc1)C(=O)CNC(=O)c1cccs1`: the IC50 in test [6] is > 100 µM (inactive).
Turning to `NC(=O)COc1ccc2oc(=O)cc(-c3cc4ccccc4o3)c2c1`, the IC50 with H9c2 was > 79 µM (inactive).
